In ChEMBL document CHEMBL4616686, “PROTAC Compounds Targeting α-Synuclein Protein for Treating Neurogenerative Disorders: Alzheimer's and Parkinson's Diseases” (ACS Med Chem Lett, 2020):

Organism: Homo sapiens
Assay: Protac activity at E3 ubiquitin ligase/alpha-syn expressed in human HEK293/TREx A53T cells assessed as alpha-synuclein degradation measured as amount of protein remaining at 1 uM by ELISA relative to control
Format: cell-based

Structure (SMILES)	Activity [%]
Cc1ncsc1-c1ccc([C@H](C)NC(=O)[C@@H]2C[C@@H](O)CN2C(=O)[C@@H](NC(=O)CN2CCN(CCN3CCC(O[C@H]4C[C@H](Oc5ccc6c(c5)Sc5cc([N+](=O)[O-])ccc5N6)C4)CC3)CC2)C(C)(C)C)cc1	< 35
CNc1ccc(-c2nc3ccc(OCCOCCOCCOCCOCCOCCOCC(=O)N[C@H](C(=O)N4C[C@H](O)C[C@H]4C(=O)N[C@@H](C)c4ccc(-c5scnc5C)cc4)C(C)(C)C)cc3s2)cc1	< 35
CNc1ccc(-c2nc3ccc(OCCOCCOCCOCCOCCOCC(=O)N[C@H](C(=O)N4C[C@H](O)C[C@H]4C(=O)N[C@@H](C)c4ccc(-c5scnc5C)cc4)C(C)(C)C)cc3s2)cc1	< 35
Cc1ncsc1-c1ccc([C@H](C)NC(=O)[C@@H]2C[C@@H](O)CN2C(=O)[C@@H](NC(=O)COCCOCCOc2ccc(CN3C(=O)/C(=C/C=C/c4ccc([N+](=O)[O-])cc4)c4ccccc43)cc2)C(C)(C)C)cc1	35 to 70
O=C1CCC(N2C(=O)c3ccc(N4CCN(CCCO[C@H]5C[C@H](Oc6ccc7c(c6)Sc6cc([N+](=O)[O-])ccc6N7)C5)CC4)cc3C2=O)C(=O)N1 (stereo partly specified)	35 to 70
CNc1ccc(-c2nc3ccc(OCCOCCOCC(=O)N[C@H](C(=O)N4C[C@H](O)C[C@H]4C(=O)N[C@@H](C)c4ccc(-c5scnc5C)cc4)C(C)(C)C)cc3s2)cc1	< 35
